Consider `C[N+](C)([O-])S(=O)(=O)c1ccc2c(c1)N(C1CN3CCC1CC3)c1ccccc1S2=O` (centres undefined), for which the melting point (usually the temperature of the solid-liquid transition) was determined as 130 °C. In turn, `Cc1nc2c(N)nc3c(c2n1CCCCCS(C)(=O)=O)CCCC3` returned a melting point of 172 to 174 °C.

On to `COc1ccc2c3c(cnc2c1)CCCC3O[Si](C)(C)C(C)(C)C` (centres undefined), for which the melting point was 102 to 104 °C. `CC1CC2C3CCC4=CC(=O)C=CC4(C)C3=CCC2(C)C1(O)C#N` (centres undefined): the melting point was 241 to 248 °C.

`COc1ccc(NC(=S)Nc2ccc(NNC=O)c(OC)c2)cc1` showed a melting point of 160 to 162 °C. The molecule `COc1cc2c(cc1OC)C(c1ccccc1)N(C(=O)NCCN(C(C)C)C(C)C)CC2` (centres undefined) registered a melting point of 109 to 110 °C. In turn, `CC(C)(C)OC(=O)N1CCC(C)(c2nc(-c3ccncc3)c(-c3ccc(F)cc3)[nH]2)CC1` came in with a melting point of 157 to 160 °C. Regarding `CCCCCCCCCCCCCCOc1ccc(CNc2cccc(CO)c2)cc1`, the melting point is 72 to 75 °C. `CCCCCCCNC(=O)N(C)c1cccc(-c2ccc(CC(OCC)C(=O)O)cn2)c1` (centres undefined) had a melting point of 140 to 141 °C. The same measure for `CC(C)CC1=NC=C2C=CC(=O)NC3=C2N1CC3`: 211 to 212 °C; for `O=C(O)/C=C/c1ccc(Oc2c(-c3ccccc3)c(C(F)(F)F)cc3ccccc23)cc1`: 210 to 211 °C. In turn, `CN(CC(O)CO)C(=O)c1c(I)c(C#N)c(I)c(C(=O)NCC(O)CO)c1I` (centres undefined) yielded a melting point of 215 °C. With `Cc1cccc2cc3c(=O)n(CCc4c[nH]c5ccccc45)cc(C(=O)NCCN(C)C)c3nc12`, the melting point is 105 to 107 °C. `COc1ccc(N2CCN(C(=O)[C@H](Cc3ccccc3)NC(=O)Nc3n[nH]c(=S)s3)CC2)cc1` displayed a melting point of 201 to 203 °C. `COc1ccccc1-n1c(-c2sc(Nc3ccc(Cl)cc3)nc2-c2ccccc2)nc2ccccc2c1=O` came in with a melting point of 230 to 232 °C. Molecule `CC(C)(C)OC(=O)C(=O)C=[N+]=[N-]` showed a melting point of 100 °C.

The molecule `O=C1c2ccccc2C(=O)N1C/C=C/CCl` gave a melting point of 108 to 110 °C. `COC(=O)COc1ccc([C@H]2c3ccc(OCc4ccccc4)cc3OC[C@H]2c2ccccc2)cc1` (racemic) showed a melting point of 143 to 144 °C. Regarding `N#Cc1ccc(N2CCN(Cc3cnc4c(c3)NC(=O)[C@@H]3CCCN43)CC2)cc1`, the melting point is 252 °C.

Turning to `O=CN1CC2CCCc3cccc1c32` (centres undefined), the melting point lay within 93 to 94 °C. The molecule `Cc1cccc(S(=O)(=O)n2c(CCC(=O)O)cc3cc(Cl)ccc32)c1` came in with a melting point of 161 to 165 °C. Molecule `CC(c1ccc(Cl)cc1Cl)C1(c2cccnc2)OC=CC1=O` (centres undefined) gave a melting point of 111 to 112 °C. Turning to `Cc1cc(Cl)ccc1N1C(=O)c2ccc(Br)cc2C1=O`, the melting point fell in the range of 207 to 210 °C. `CC1COC(c2nsc3ccc(-n4c(=O)cc(C(F)(F)F)n(C)c4=O)cc23)O1` (centres undefined) had a melting point of 81 to 83 °C.

Values taken from a melting point compilation (Tetko et al.; mined from patent text by program, amines drawn as free bases though some values may be those of a salt).
